Results published in publication PMC6695355, “Alanine Scanning Studies of the Antimicrobial Peptide Aurein 1.2” (Probiotics and Antimicrobial Proteins, 2018).
Converted amounts (≈) assume the structure as drawn. Where a SMILES comes first, the peptide text is derived from it.

Tests used:
[1] = test system: S. aureus ATCC 25923 biofilm formation; assay type: cell-based, Staphylococcus aureus; conditions: ATCC 25923, 24 h
Experimental: (§1) The minimum inhibitory concentrations (MICs) of test compounds were assessed by broth microdilution method on 96-well plates, according to the guidelines of Clinical and Laboratory Standards Institute (CLSI). For this purpose, reference strains of bacteria: S. aureus ATCC 25923, E. faecalis PCM 2673, E. coli ATCC 25922, and P. aeruginosa ATCC 9027; and fungus: C. albicans ATCC 10231 were used (The Polish Collection of Microorganism, Polish Academy of Sciences, Wrocław, Poland). Bacteria at initial inoculums of 0.5 × 10^5 CFU/mL in Mueller Hinton Broth (MHB), and fungi at initial inoculums of 2 × 10^3 CFU/mL in RPMI-1640, were exposed to the compounds over the concentration range of 1–512 μg/mL. The polystyrene plates were incubated at 37 °C for 18 h with bacteria and for 24 h with C. albicans. The MIC was taken as the lowest concentration at which a noticeable growth of microorganisms was inhibited. Minimum biofilm eradication concentrations (MBECs) were determined using a previously described protocol. For this purpose, 96-well polystyrene flat-bottom plates and a resazurin (7-hydroxy-3H-phenoxazin-3-one 10-oxide) were used. In this assay, a specific feature of resazurin is utilized, which upon the contact with living cells is metabolized and reduced from the basic blue form to pink resorufin. Briefly, 24-h cultures of microorganisms were diluted 1,000-fold and 100 μL of that suspension was added into the test plates. After 24 h of incubation at 37 °C, the wells of the plates were rinsed three times with phosphate buffer saline (PBS) to remove non-adherent cells. Subsequently, 100 μL of test compounds in concentration range (diluted in appropriate media) were added to each well. After 24 h of incubation at 37 °C, 20 μL of the resazurin (4 mg/mL) was added. The MBEC was read after 1 h. Additionally, anti-adhesive properties of the compounds were also analyzed. The assay was conducted on 96-well polystyrene flat-bottom plates. The preparation of inoculums was followed by a 500-fold dilution of 24-h cultures of microorganisms. Briefly, to evaluate the effect of the peptides in preventing biofilm formation, 50 μL of compounds in concentration range, diluted in appropriate medium, were prepared. Subsequently, the 50 μL of the bacterial/fungal inoculums were added to reach the same microbial density as that in MBEC assay. After 24 h of incubation at 37 °C, the wells were rinsed three times with PBS and the fresh media with resazurin (0.6 mg/mL) were added. Then, after 1 h of incubation, the minimum biofilm inhibitory concentrations (MBIC) were read. MBECs as well as MBICs were determined as the lowest concentration at which the reduction of resazurin was lower or equal (10% ± 0.5%) as compared to positive (100%) and negative (0%) controls. All experiments were performed in triplicate.

[2] = test system: S. aureus ATCC 25923 biofilm; assay type: cell-based, Staphylococcus aureus; conditions: ATCC 25923, 24 h
Experimental: as §1

S. aureus ATCC 25923 = assay type: cell-based, Staphylococcus aureus; conditions: ATCC 25923, 18 h
Experimental: as §1

[3] = test system: E. faecalis PCM 2673 biofilm formation; assay type: cell-based, Enterococcus faecalis; conditions: 24 h
Experimental: as §1

[4] = test system: E. faecalis PCM 2673 biofilm; assay type: cell-based, Enterococcus faecalis; conditions: 24 h
Experimental: as §1

E. faecalis PCM 2673 = assay type: cell-based, Enterococcus faecalis; conditions: PCM 2673, 18 h
Experimental: as §1

[5] = test system: E. coli ATCC 25922 biofilm formation; assay type: cell-based, Escherichia coli; conditions: ATCC 25922, 24 h
Experimental: as §1

[6] = test system: E. coli ATCC 25922 biofilm; assay type: cell-based, Escherichia coli; conditions: ATCC 25922, 24 h
Experimental: as §1

E. coli ATCC 25922 = assay type: cell-based, Escherichia coli; conditions: ATCC 25922, 18 h
Experimental: as §1

[7] = test system: P. aeruginosa ATCC 9027 biofilm formation; assay type: cell-based, Pseudomonas aeruginosa; conditions: ATCC 9027, 24 h
Experimental: as §1

[8] = test system: P. aeruginosa ATCC 9027 biofilm; assay type: cell-based, Pseudomonas aeruginosa; conditions: ATCC 9027, 24 h
Experimental: as §1

P. aeruginosa ATCC 9027 = assay type: cell-based, Pseudomonas aeruginosa; conditions: ATCC 9027, 18 h
Experimental: as §1

[9] = test system: C. albicans ATCC 10231 biofilm formation; assay type: cell-based, Candida albicans; conditions: ATCC 10231, 24 h
Experimental: as §1

[10] = test system: C. albicans ATCC 10231 biofilm; assay type: cell-based, Candida albicans; conditions: ATCC 10231, 24 h
Experimental: as §1

C. albicans ATCC 10231 = assay type: cell-based, Candida albicans; conditions: ATCC 10231, 24 h
Experimental: as §1

[11] = test system: human red blood cells (RBCs); assay: Hemolysis assay; assay type: cell-based; conditions: red cells of human, 1 h
Experimental: The hemolytic activity of the peptides was determined using fresh human red blood cells (RBCs) collected from a healthy human donor according to the procedure described in the literature. Fresh RBCs with EDTA as anticoagulant were rinsed three times with a PBS by centrifugation at 800×g for 10 min and resuspension in PBS. Serial dilution of the peptides in PBS (1–256 μg/mL) on 96-well polystyrene plates was prepared and the stock solution of RBCs was added up to a final volume of 100 μL with a 4% concentration of erythrocytes (v/v). The control wells for 0 and 100% hemolysis contained of RBCs suspended in PBS and 1% of Triton-X 100, respectively. Subsequently, the plates were incubated for 1 h at 37 °C and then centrifuged at 800×g for 10 min at 4 °C (Sorvall ST 16R Centrifuge, Thermo Scientific). After centrifugation, the supernatant was carefully […] to new microtiter plates and the release of hemoglobin was measured at 540 nm (Multiskan™ GO Microplate Spectrophotometer, Thermo Scientific). All experiments were conducted in triplicate.

in vitro = in vitro ADME; conditions: bovine, serum
Experimental: To assess serum stability, the peptides (0.5 mg) were dissolved in 4 mL of 25% (v/v) fetal bovine serum (FBS) in PBS and incubated at 37 °C. The aliquots of 100 μL of the test samples were transferred to 96-well polystyrene plates in triplicate for each time point. Samples were quenched at zero time (t0) and after 6 h of incubation at 37 °C by addition of 100 μL of ice-cold acetonitrile and stored at 4 °C for 10 min. Afterwards, the samples were centrifuged at 13,000×g for 20 min at 4 °C and diluted 1:1 with HPLC-grade water. All samples were analyzed using the Waters Alliance e2695 system with Waters Acquity QDa Detector (software–Empower®3). Analyses were conducted on an Agilent Zorbax SB-C18 RP-18 column (4.6 × 50 mm, 1.8-μm particle size, 80-Å pore size) using a linear 30–60% acetonitrile (B) gradient in deionized water (A) over 6 min at 25.0 ± 0.1 °C, at a flow rate of 0.5 mL/min and MS working in selected ion recording (SIR) mode (A—0.1% aqueous formic acid (FA) and B—0.1% FA in acetonitrile). The percentage of peptide remaining intact was calculated from peak areas of samples at t0 and after 6 h of incubation in serum (the % of remaining peptide = peak area after 6 h/peak area at t0). The mass-to-charge ratios selected for SIR mode were based on values obtained from full spectrum analysis of each peptide and are presented in Table 1.

| Compound | MBIC, S. aureus ATCC 25923 [1] [µg/mL] | MBEC, S. aureus ATCC 25923 [2] [µg/mL] | MIC, S. aureus ATCC 25923 (S. aureus ATCC 25923) [µg/mL] | MBIC, E. faecalis PCM 2673 [3] [µg/mL] | MBEC, E. faecalis PCM 2673 [4] [µg/mL] | MIC, E. faecalis PCM 2673 (E. faecalis PCM 2673) [µg/mL] | MBIC, E. coli ATCC 25922 [5] [µg/mL] | MBEC, E. coli ATCC 25922 [6] [µg/mL] | MIC, E. coli ATCC 25922 (E. coli ATCC 25922) [µg/mL] | MBIC, P. aeruginosa ATCC 9027 [7] [µg/mL] | MBEC, P. aeruginosa ATCC 9027 [8] [µg/mL] | MIC, P. aeruginosa ATCC 9027 (P. aeruginosa ATCC 9027) [µg/mL] | MBIC, C. albicans ATCC 10231 [9] [µg/mL] | MBEC, C. albicans ATCC 10231 [10] [µg/mL] | MIC, C. albicans ATCC 10231 (C. albicans ATCC 10231) [µg/mL] | Percentage of hemolysis at 1 μg/mL [11] [%] | Percentage of hemolysis at 2 μg/mL [11] [%] | Percentage of hemolysis at 4 μg/mL [11] [%] | Percentage of hemolysis at 8 μg/mL [11] [%] | Percentage of hemolysis at 16 μg/mL [11] [%] | other results |
| --- | --- | --- | --- | --- | --- | --- | --- | --- | --- | --- | --- | --- | --- | --- | --- | --- | --- | --- | --- | --- | --- |
| CC[C@H](C)[C@H](NC(=O)[C@H](CCCCN)NC(=O)[C@H](CCCCN)NC(=O)[C@@H](NC(=O)[C@@H](NC(=O)[C@H](CC(=O)O)NC(=O)[C@H](Cc1ccccc1)NC(=O)[C@H](CC(C)C)NC(=O)CN)[C@@H](C)CC)[C@@H](C)CC)C(=O)N[C@@H](C)C(=O)N[C@@H](CCC(=O)O)C(=O)N[C@@H](CO)C(=O)N[C@@H](Cc1ccccc1)C(N)=O [aurein 1.2] (H-GLFDIIKKIAESF-NH2) | 128 | 128 | 128 (≈ 86.5 µM) | 128 | > 512 | 64 (≈ 43.2 µM) | 128 | 64 | 64 (≈ 43.2 µM) | 128 | 512 | 256 (≈ 173 µM) | 2 | 256 | 32 (≈ 21.6 µM) | 0.0 | 0.1 | 0.0 | 0.0 | 0.4 | Percentage of hemolysis at 32 μg/mL [11]: 0.5%; Percentage of hemolysis at 64 μg/mL [11]: 4.5%; Percentage of hemolysis at 128 μg/mL [11]: 19.2%; Percentage of hemolysis at 256 μg/mL [11]: 58.8%; remaining at 6 h, 0.125 mg/mL (in vitro): 65% |
| CC[C@H](C)[C@H](NC(=O)[C@H](CCCCN)NC(=O)[C@H](CCCCN)NC(=O)[C@H](C)NC(=O)[C@@H](NC(=O)[C@H](CC(=O)O)NC(=O)[C@H](Cc1ccccc1)NC(=O)[C@H](CC(C)C)NC(=O)CN)[C@@H](C)CC)C(=O)N[C@@H](C)C(=O)N[C@@H](CCC(=O)O)C(=O)N[C@@H](CO)C(=O)N[C@@H](Cc1ccccc1)C(N)=O [Peptide I6A] (H-GLFDIAKKIAESF-NH2) | > 512 | > 512 | > 512 | > 512 | > 512 | 256 (≈ 178 µM) | 512 | > 512 | 512 (≈ 356 µM) | > 512 | > 512 | > 512 | 4 | > 512 | 256 (≈ 178 µM) | 0.4 | 0.6 | 0.5 | 0.3 | 0.1 | Percentage of hemolysis at 32 μg/mL [11]: 0.0%; Percentage of hemolysis at 64 μg/mL [11]: 0.1%; Percentage of hemolysis at 128 μg/mL [11]: 0.1%; Percentage of hemolysis at 256 μg/mL [11]: 0.1%; remaining at 6 h, 0.125 mg/mL (in vitro): 29% |
